Data from ChEMBL document CHEMBL5346923, “Novel pyridinium cationic pleuromutilin analogues overcoming bacterial multidrug resistance” (Eur J Med Chem, 2023).
Converted amounts (≈) assume the structure as drawn. The source made the active and inactive calls. The calls are words filed in the database; no cut-off is given here.

Experiments:
[1] = tested on: Enterococcus; assay: Antibacterial activity against vancomycin-resistant Enterococcus ATCC 700221 assessed as inhibition of bacterial growth measured after 24 hrs by MH broth based assay; type: functional
[2] = tested on: Bacillus subtilis; assay: Antibacterial activity against Bacillus subtilis ATCC 6633 assessed as inhibition of bacterial growth measured after 24 hrs by MH broth based assay; type: functional
[3] = tested on: Staphylococcus aureus; assay: Antibacterial activity against Staphylococcus aureus ATCC 29213 assessed as inhibition of bacterial growth measured after 24 hrs by MH broth based assay; type: functional
[4] = tested on: Staphylococcus aureus; assay: Antibacterial activity against methicillin-resistant Staphylococcus aureus ATCC 43300 assessed as inhibition of bacterial growth measured after 24 hrs by MH broth based assay; type: functional
[5] = tested on: Streptococcus pneumoniae; assay: Antibacterial activity against Streptococcus pneumoniae ATCC 49619 assessed as inhibition of bacterial growth measured after 24 hrs by MH broth based assay; type: functional
[6] = tested on: Staphylococcus epidermidis; assay: Antibacterial activity against methicillin-resistant Staphylococcus epidermidis ATCC 51625 assessed as inhibition of bacterial growth measured after 24 hrs by MH broth based assay; type: functional
[7] = tested on: Klebsiella pneumoniae; assay: Antibacterial activity against Klebsiella pneumonia CMCC (B) 46117 assessed as inhibition of bacterial growth measured after 24 hrs by MH broth based assay; type: functional
[8] = tested on: Escherichia coli; assay: Antibacterial activity against Escherichia coli ATCC 25922 assessed as inhibition of bacterial growth measured after 24 hrs by MH broth based assay; type: functional
[9] = tested on: Proteus; assay: Antibacterial activity against Proteus CMCC (B) 49027 assessed as inhibition of bacterial growth measured after 24 hrs by MH broth based assay; type: functional
[10] = tested on: Staphylococcus aureus; assay: Antibacterial activity against clinical isolate Staphylococcus aureus harbouring IsaE gene assessed as inhibition of bacterial growth measured after 24 hrs by MH broth based assay; type: functional
[11] = tested on: Staphylococcus aureus; assay: Antibacterial activity against clinical isolate Staphylococcus aureus harbouring cfr gene assessed as inhibition of bacterial growth measured after 24 hrs by MH broth based assay; type: functional
[12] = tested on: Staphylococcus aureus; assay: Antibacterial activity against clinical isolate Staphylococcus aureus harbouring erm C gene assessed as inhibition of bacterial growth measured after 24 hrs by MH broth based assay; type: functional
[13] = tested on: Staphylococcus aureus; assay: Antibacterial activity against clinical isolate Staphylococcus aureus harbouring cfr and erm C gene assessed as inhibition of bacterial growth measured after 24 hrs by MH broth based assay; type: functional
[14] = tested on: Staphylococcus aureus; assay: Antibacterial activity against clinical isolate Staphylococcus aureus harbouring IsaA, cfr and erm A gene assessed as inhibition of bacterial growth measured after 24 hrs by MH broth based assay; type: functional
[15] = tested on: Staphylococcus aureus; assay: Antibacterial activity against clinical isolate Staphylococcus aureus harbouring tet38 gene assessed as inhibition of bacterial growth measured after 24 hrs by MH broth based assay; type: functional
[16] = tested on: Staphylococcus aureus; assay: Antibacterial activity against clinical isolate Staphylococcus aureus harbouring blaZ gene assessed as inhibition of bacterial growth measured after 24 hrs by MH broth based assay; type: functional
[17] = tested on: Staphylococcus aureus; assay: Antibacterial activity against clinical isolate Staphylococcus aureus harbouring ArlS, norA and MgrA gene assessed as inhibition of bacterial growth measured after 24 hrs by MH broth based assay; type: functional
[18] = tested on: Streptococcus pneumoniae; assay: Antibacterial activity against clinical isolate Streptococcus pneumoniae harbouring ermB gene assessed as inhibition of bacterial growth measured after 24 hrs by MH broth based assay; type: functional
[19] = tested on: Aerococcus viridans; assay: Antibacterial activity against clinical isolate Aerococcus viridans harbouring optrA and ErmA gene assessed as inhibition of bacterial growth measured after 24 hrs by MH broth based assay; type: functional
[20] = tested on: Streptococcus suis; assay: Antibacterial activity against clinical isolate Streptococcus suis harbouring IsaE and ErmA gene assessed as inhibition of bacterial growth measured after 24 hrs by MH broth based assay; type: functional
[21] = tested on: Streptococcus parasuis; assay: Antibacterial activity against clinical isolate Streptococcus parasuis harbouring InuD gene assessed as inhibition of bacterial growth measured after 24 hrs by MH broth based assay; type: functional
[22] = tested on: Streptococcus parasuis; assay: Antibacterial activity against clinical isolate Streptococcus parasuis harbouring optrA gene assessed as inhibition of bacterial growth measured after 24 hrs by MH broth based assay; type: functional
[23] = tested on: Streptococcus hyovaginalis; assay: Antibacterial activity against clinical isolate Streptococcus hyovaginalis harbouring IsaE and optrA gene assessed as inhibition of bacterial growth measured after 24 hrs by MH broth based assay; type: functional
[24] = tested on: Streptococcus hyovaginalis; assay: Antibacterial activity against clinical isolate Streptococcus hyovaginalis harbouring ErmB and tetO gene assessed as inhibition of bacterial growth measured after 24 hrs by MH broth based assay; type: functional
[25] = tested on: Enterococcus hirae; assay: Antibacterial activity against clinical isolate Enterococcus hirae assessed as inhibition of bacterial growth measured after 24 hrs by MH broth based assay; type: functional
[26] = tested on: Enterococcus lactis; assay: Antibacterial activity against clinical isolate Enterococcus lactis assessed as inhibition of bacterial growth measured after 24 hrs by MH broth based assay; type: functional
[27] = tested on: Escherichia coli; assay: Antibacterial activity against clinical isolate Escherichia coli harbouring NDM-17 gene assessed as inhibition of bacterial growth measured after 24 hrs by MH broth based assay; type: functional
[28] = tested on: Klebsiella pneumoniae; assay: Antibacterial activity against clinical isolate Klebsiella pneumoniae harbouring mcr-8 gene assessed as inhibition of bacterial growth measured after 24 hrs by MH broth based assay; type: functional
[29] = tested on: Klebsiella pneumoniae; assay: Antibacterial activity against clinical isolate Klebsiella pneumoniae harbouring blaKpc gene assessed as inhibition of bacterial growth measured after 24 hrs by MH broth based assay; type: functional
[30] = tested on: Escherichia coli; assay: Antibacterial activity against Escherichia coli MG1655 assessed as inhibition of bacterial growth measured after 24 hrs by MH broth based assay; type: functional
[31] = tested on: Escherichia coli; assay: Antibacterial activity against Escherichia coli MG1655 harbouring acrB gene assessed as inhibition of bacterial growth measured after 24 hrs by MH broth based assay; type: functional
[32] = tested on: Staphylococcus aureus; assay: Antibacterial activity against clinical isolate multi-drug resistant Staphylococcus aureus sal assessed as reduction in log10 CFU at 6 times of MIC measured after 8 hrs by time-kill assay; type: functional
[33] = tested on: Staphylococcus aureus; assay: Antibacterial activity against clinical isolate multi-drug resistant Staphylococcus aureus sal assessed as inhibition of bacterial growth; type: functional
[34] = tested on: Staphylococcus aureus; assay: Antibacterial activity against methicillin-resistant Staphylococcus aureus assessed as resistance development by measuring fold increase in MIC measured after 24 days; type: functional; conditions: time 24 day
[35] = tested on: Staphylococcus aureus; assay: Antibacterial activity against compound-resistant/methicillin-resistant Staphylococcus aureus assessed as inhibition of bacterial growth; type: functional
[36] = tested on: Staphylococcus aureus; assay: Antibacterial activity against tiamulin-resistant/methicillin-resistant Staphylococcus aureus assessed as inhibition of bacterial growth; type: functional
[37] = tested on: Staphylococcus aureus; assay: Antibacterial activity against Staphylococcus aureus ATCC 29213 assessed as inhibition of bacterial division at 1 to 4 times of MIC by SEM analysis; type: functional, organism-based
[38] = tested on: Staphylococcus aureus; assay: Antibacterial activity against multi-drug resistant Staphylococcus aureus sa1 infected in BABL/C mouse assessed as survival rate at 40 mg/kg, ip measured upto 7 days; type: functional; conditions: sa1, 168 h, time <= 7 day
[39] = tested on: Staphylococcus aureus; assay: Antibacterial activity against multi-drug resistant Staphylococcus aureus sa1 infected in ip dosed BABL/C mouse assessed as survival rate measured upto 7 days; type: functional; conditions: sa1, 168 h, time <= 7 day
[40] = tested on: Staphylococcus aureus; assay: Antibacterial activity against multi-drug resistant Staphylococcus aureus sa1 infected in BABL/C mouse assessed as reduction in bacterial load in lungs at 40 mg/kg, ip measured after 2 days; type: functional; conditions: time 2 day
[41] = tested on: Staphylococcus aureus; assay: Antibacterial activity against multi-drug resistant Staphylococcus aureus sa1 infected in BABL/C mouse assessed as reduction in bacterial load in lungs at 20 mg/kg, ip measured after 2 days; type: functional; conditions: time 2 day
[42] = tested on: Staphylococcus aureus; assay: Antibacterial activity against multi-drug resistant Staphylococcus aureus sa1 infected in BABL/C mouse assessed as appearance of alveolar septa thickening at 20 to 40 mg/kg, ip; type: functional, organism-based; conditions: dose 20-40 mg/kg
[43] = tested on: Staphylococcus aureus; assay: Antibacterial activity against multi-drug resistant Staphylococcus aureus sa1 infected in BABL/C mouse assessed as appearance of congested pulmonary capillaries at 20 mg/kg, ip; type: functional, organism-based
[44] = tested on: Staphylococcus aureus; assay: Antibacterial activity against multi-drug resistant Staphylococcus aureus sa1 infected in BABL/C mouse assessed as lymphocyte infiltration at 20 mg/kg, ip; type: functional, organism-based
[45] = tested on: Staphylococcus aureus; assay: Antibacterial activity against multi-drug resistant Staphylococcus aureus sa1 infected in BABL/C mouse assessed as neutrophil infiltration at 20 mg/kg, ip; type: functional, organism-based

## C=C[C@]1(C)C[C@@H](OC(=O)CSCCN(CC)CC)[C@]2(C)[C@H](C)CC[C@]3(CCC(=O)[C@H]32)[C@@H](C)[C@@H]1O [TIAMULIN]
[1]
  MIC: 64 µg/mL (≈ 130 µM)
[2]
  MIC: 64 µg/mL (≈ 130 µM)
[3]
  MIC: 0.5 µg/mL (≈ 1.01 µM)
[4]
  MIC: 0.5 µg/mL (≈ 1.01 µM)
[5]
  MIC: 0.063 µg/mL (≈ 0.128 µM)
[6]
  MIC: 0.25 µg/mL (≈ 0.506 µM)
[7]
  MIC: 16 µg/mL (≈ 32.4 µM)
[8]
  MIC: > 64 µg/mL
[9]
  MIC: > 64 µg/mL
[10]
  MIC: 128 µg/mL (≈ 259 µM)
[11]
  MIC: 128 µg/mL (≈ 259 µM)
[12]
  MIC: 32 µg/mL (≈ 64.8 µM)
[13]
  MIC: 128 µg/mL (≈ 259 µM)
[14]
  MIC: 128 µg/mL (≈ 259 µM)
[15]
  MIC: 0.25 µg/mL (≈ 0.506 µM)
[16]
  MIC: 0.5 µg/mL (≈ 1.01 µM)
[17]
  MIC: 0.5 µg/mL (≈ 1.01 µM)
[18]
  MIC: 32 µg/mL (≈ 64.8 µM)
[19]
  MIC: 32 µg/mL (≈ 64.8 µM)
[20]
  MIC: 64 µg/mL (≈ 130 µM)
[21]
  MIC: 64 µg/mL (≈ 130 µM)
[22]
  MIC: 64 µg/mL (≈ 130 µM)
[23]
  MIC: 64 µg/mL (≈ 130 µM)
[24]
  MIC: 64 µg/mL (≈ 130 µM)
[25]
  MIC: 8 µg/mL (≈ 16.2 µM)
[26]
  MIC: 128 µg/mL (≈ 259 µM)
[27]
  MIC: 64 µg/mL (≈ 130 µM)
[28]
  MIC: 16 µg/mL (≈ 32.4 µM)
[29]
  MIC: 32 µg/mL (≈ 64.8 µM)
[30]
  MIC: 64 µg/mL (≈ 130 µM)
[31]
  MIC: 2 µg/mL (≈ 4.05 µM)
[32]
  Activity: Active
[33]
  MIC: 128 µg/mL (≈ 259 µM)
[34]
  fold change (FC): 64
[35]
  MIC: 1 µg/mL (≈ 2.03 µM)
[36]
  MIC: 64 µg/mL (≈ 130 µM)
[37]
  Activity: Active
[38]
  survival at 40 mg/kg: 50%
[39]
  ED50: 47.5 mg/kg
[40]
  Activity: 1.94 log10CFU/ml
[41]
  Activity: 1.35 log10CFU/ml
[42]
  Activity: Active
[43]
  Activity: Active
[44]
  Activity: Active
[45]
  Activity: Active
